Read-outs that look alike come from different tables or passages of the source.

Series [1] concerns primary cultures of cortex.
Series [2] concerns cortical cells. The conditions noted are these: 100 uM tolbutamide.
Series [3] relates to primary cortical cultures. Particulars: 5% Triton; 20 minutes incubation.
The target in series [4] is F425G Shaker mutation (Drosophila melanogaster, UniProt P08510, F425G). The conditions noted are these: cited from earlier work.
F425G Shaker mutation, sequence (P08510 whole entry F425G): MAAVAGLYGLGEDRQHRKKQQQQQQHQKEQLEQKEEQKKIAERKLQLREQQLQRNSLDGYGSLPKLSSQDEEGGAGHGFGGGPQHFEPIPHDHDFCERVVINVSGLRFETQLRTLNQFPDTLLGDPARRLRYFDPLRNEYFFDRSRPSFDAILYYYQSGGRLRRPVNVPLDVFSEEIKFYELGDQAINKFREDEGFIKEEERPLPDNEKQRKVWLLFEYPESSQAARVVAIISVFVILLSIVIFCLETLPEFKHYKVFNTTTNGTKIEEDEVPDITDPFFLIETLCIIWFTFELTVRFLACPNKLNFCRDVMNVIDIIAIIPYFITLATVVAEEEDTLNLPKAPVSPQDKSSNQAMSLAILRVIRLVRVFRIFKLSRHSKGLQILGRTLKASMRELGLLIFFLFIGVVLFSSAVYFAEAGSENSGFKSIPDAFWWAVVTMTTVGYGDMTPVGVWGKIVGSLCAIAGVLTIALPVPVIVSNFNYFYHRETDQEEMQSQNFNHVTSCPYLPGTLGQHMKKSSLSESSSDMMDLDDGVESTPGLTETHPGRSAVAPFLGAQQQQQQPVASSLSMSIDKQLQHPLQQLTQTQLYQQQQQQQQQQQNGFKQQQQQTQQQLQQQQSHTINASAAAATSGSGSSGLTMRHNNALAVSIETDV

For the molecule `Nc1ccncc1` [4-AP, 4-aminopyridine], in series [1] (cortical preparations, 100 nM κ-PVIIA), the “effect of K+ channel antagonist on κ-PVIIA-induced hyperpolarization” value was “without any detectable effect”.

In the case of `COc1ccc(Cl)cc1C(=O)NCCc1ccc(S(=O)(=O)NC(=O)NC2CCCCC2)cc1` [Glibenclamide], the “effect of Glibenclamide on κ-PVIIA-induced hyperpolarization” value in series [1] (cortical preparations, Glibenclamide 10 nM, 100 nM κ-PVIIA) is on record as “significant reductions”.

Regarding `CCCCNC(=O)NS(=O)(=O)c1ccc(C)cc1` [Tolbutamide, reference compound], the “effect of tolbutamide on κ-PVIIA protection against glutamate cytotoxicity” value in series [2] is “blocked”.

As for “Iberiotoxin (QFTDVDCSVSKECWSVCKDLFGVDRGKCMGKKCRCYQ; UniProt P24663 1-37, looked up) [IBTX]”, the “effect of K+ channel antagonist on κ-PVIIA-induced hyperpolarization” value in series [1] is reported as “without any detectable effect”.

Consider Triton [reference compound], for which the “increase in fluorescence, Enzchek protease-sensitive dye” value in series [3] was roughly 14%.

As to charybdotoxin [reference compound], the “increase of charybdotoxin affinity by F425G Shaker mutation” value in series [4] is recorded as “three orders of magnitude”.

Source of the values: US20060257843A1 (priority 2002, published 2006).
